Results reported in PMC11767819, “Drug Screening of Flavonoids as Potential VEGF Inhibitors Through Computational Docking and Cell Models” (Molecules, 2025).
Read-outs that look alike come from different tables or passages of the source.

Assays:
HaCaT cells [1] = test: Wound closure (wound healing) assay, VEGF-induced; format: cell-based; details: Homo sapiens, 20 h, read-out: IC50 of inhibition of wound recovery rate
Description: Photos of each cell scrape at 0 (At0) and 20 h (At20) were captured with microscope and imaging software (Zen, https://www.zeiss.com/microscopy/en/home.html, accessed on 1 September 2024) at a 10× magnification. […] A: positive control, Avastin; F: farrerol; O: ononin; E: (−)-epicatechin.
A wound closure assay was performed on cultured HaCaT cells to study cell migration in vitro. Procedures were described previously by Guo et al.. Briefly, HaCaT cells were seeded onto a 12-well plate with a density of 3 × 10^5 cells/well. Treatments were given when cells grew to full confluency. After serum starvation, sterile 200 μL pipette tips were used to make a vertical and a horizontal scrape on the cell monolayer in a consistent manner. Cells were washed with PBS and treated with drugs at various concentrations. Photos of each cell scrape at 0 (At0) and 20 h (At20) were captured with a microscope and imaging software (Zen) at a 10× magnification. The software TScratch (CSE lab, Zurich, Switzerland, https://github.com/cselab/TScratch, accessed on 1 September 2024) was used to analyze the open area of each scrape photo at different timepoints. Quantification of the recovery rate of the wound was calculated based on the following equation: wound closure (%) = (At0 − At20)/At20 × 100%.

HaCaT cells [2] = test: MTT cell viability assay; format: cell-based, human; details: concentrations up to 100 µM, 24 h
Description: Cell viability was assessed with the MTT assay to evaluate the potential toxicity effect of the tested drugs. HaCaT cells were seeded onto 96-well plates for 24 h prior to drug treatments. After incubations for 24 h, an MTT solution in a final concentration of 0.5 mg/mL was added to each well. Following another 3 h of incubation, DMSO solvent was used to dissolve the purple formazan crystals generated in each well. The absorbance of the samples at 570 nm was measured using a microplate reader (Thermo Fisher Scientific). The cell viability was calculated as follows: cytotoxicity (%) = (experimental value − low control)/(high control − low control) × 100%.

[3] = Chemical stability test through HPLC analysis; format: physicochemical; details: for Inter-Day RSD / Inter-Day Mean Peak Area: 6 consecutive days; for Inter-Day RSD / Intra-Day RSD: n = 6; for Inter-Day Mean Peak Area / Intra-Day Mean Peak Area: n = 6, 210 nm; for Intra-Day RSD / Intra-Day Mean Peak Area: same day; for Stability in aqueous solution (in words): acidic, neutral and basic conditions, HPLC
Text: Chemical degradation has been a major factor resulting in molecular hydrolysis, oxidation, light-catalyzed degradation and so on. Therefore, stability in aqueous solution, including acidic, neutral and basic conditions, has become a crucial requirement for a promising drug candidate. Prior to the biochemical assay, three phytochemicals were subjected to HPLC analysis to determine their stabilities in various solutions. Glycine buffer (pH 8–11), PBS (pH 7–8) and acetate buffer (pH 4–6) were employed to cover the main pH ranges. […].
The stability test was validated by determining the intra-day and inter-day variability through HPLC analysis, which was performed on an Agilent 1200 Liquid Chromatography (Santa Clara, CA, USA) equipped with an ODS C18 column (4.6 mm × 250 mm). Glycine buffer (pH 8–11), PBS (pH 7–8) and acetate buffer (pH 4–6) were employed to cover main pH ranges. Stock solutions at a concentration of 10 mM of the test compounds were prepared in DMSO and stored at −20 °C, while working concentrations were prepared at 1–5 μM solution in DMSO and buffers. Chromatography was conducted through the ORBAX XDB-C18 column (Agilent, 4.6 × 50 mm, 1.8 μm). The mobile phase was a mixture of water and acetonitrile (95:5, v/v), and the elution time was 15 min. The mobile phase flow rate and injection volume were 1.0 mL/min and 10 μL, respectively. Analytes were detected at a 210 nm wavelength. The intra-day and inter-day stability was calculated by analyzing six replicates of the standard solution of the two analytes during a single day and six replicates of the samples detected on six consecutive days, respectively. Thereafter, the relative standard deviation (RSD) was determined as a measurement of stability.

NF-κB in RAW 264.3 cells = test: Luciferase activity of NF-κB, VEGF-induced; format: cell-based; details: chemicals 1, 10 and 25 µM, avastin 10 ng/mL
Description: The luciferase of NK-κB activity was performed following a previous report. Briefly, RAW 264.3 cells were transfected with pNF-κB (Thermo Fisher Scientific) using jetPRIME and incubated for 24 h. The refresh medium was replaced every four hours, and drug treatments were added twice after 24 h or 48 h. Upon completion of the reaction, the chemical luminescent intensity was determined by a luminometer (Promega, WI, USA) and normalized by protein concentrations.

VEGF protein = target: T1, VEGF protein (Homo sapiens, UniProt P15692); test: Ultrafiltration-based affinity assay; format: binding; details: ligand 0.02 µM, VEGF protein 0.02 µM, 4 °C, 2 h, n = 4
T1 construct: purchased MCE
T1 sequence (P15692 1-191 isoform P15692-4): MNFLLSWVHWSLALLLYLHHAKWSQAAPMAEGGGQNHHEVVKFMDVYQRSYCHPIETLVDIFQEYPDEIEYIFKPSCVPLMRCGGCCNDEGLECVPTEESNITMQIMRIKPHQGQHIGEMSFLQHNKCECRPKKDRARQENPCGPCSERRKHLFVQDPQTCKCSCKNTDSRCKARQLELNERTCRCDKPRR
Description: Caco-2 cells were cultured until fully differentiated after being cultured for 21 days, and the integrity of cell monolayer was determined by the transepithelial electrical resistance (TEER). * p < 0.05. […] Red curve: initial concentration of chemicals; black curve: concentration of chemicals binding to the protein (Cpre − Cpost). n = 4.
The binding affinity was evaluated through the previous approach. Specifically, the tested ligands at 0.02 µM were mixed with or without 0.02 µM of the VEGF protein (MCE, Monmouth Junction, NJ, USA) and incubated in Milli-Q water (Burlington, MA, USA) at 4 °C for 2 h. The mixture was transferred to a 0.5 mL ultrafiltration tube (2000 MW cutoff; Sartorius Stedim Biotech, Gottingen, Germany). After multiple rounds of centrifugation, the supernatant was further analyzed through HPLC investigation, as described above in Section 4.6.

endothelial cells = details: cell proliferation and migration in endothelial cells, phosphorylation of PI3-K/Akt, JNK and eNOS; cited from earlier work
tumor growth = details: nude mice; cited from earlier work

Molecule	IC50 (HaCaT cells [1]; HaCaT cells, VEGF-induced)	Cell viability (cytotoxic effect) (HaCaT cells [2])	Inter-Day RSD ([3]; acidic (acetate buffer pH 4–6))	Inter-Day Mean Peak Area ([3]; acidic (acetate buffer pH 4–6))	Intra-Day RSD ([3]; acidic (acetate buffer pH 4–6))	Intra-Day Mean Peak Area ([3]; acidic (acetate buffer pH 4–6))	Stability in aqueous solution (in words) [3]	Inter-Day RSD ([3]; basic (glycine buffer pH 8–11))	Inter-Day Mean Peak Area ([3]; basic (glycine buffer pH 8–11))	Intra-Day RSD ([3]; basic (glycine buffer pH 8–11))	Intra-Day Mean Peak Area ([3]; basic (glycine buffer pH 8–11))	Inter-Day RSD ([3]; neutral (PBS pH 7–8))	Inter-Day Mean Peak Area ([3]; neutral (PBS pH 7–8))	Intra-Day RSD ([3]; neutral (PBS pH 7–8))	Intra-Day Mean Peak Area ([3]; neutral (PBS pH 7–8))	Effect on VEGF-induced NF-κB activity (in words) (NF-κB in RAW 264.3 cells)	protein binding degree (VEGF protein)	IC50 (HaCaT cells [1]; HaCaT)	Inhibition of VEGF-mediated biological activities (in words) (endothelial cells)	Tumor growth (in words) (tumor growth)
Oc1cc(O)c2c(c1)O[C@H](c1ccc(O)c(O)c1)[C@H](O)C2 [(−)-epicatechin]	9.2 µM	cells remained unaffected	11.91%	2510.4	3.98%	2751.5	some mild degradation of (−)-epicatechin was induced in acidic and basic environments	13.58%	2519.4	4.85%	2726.0	7.56%	2601.7	1.38%	2826.6	suppressed in dose-dependent manners	50.3%			
Cc1c(O)c(C)c2c(c1O)C(=O)C[C@@H](c1ccc(O)cc1)O2 [farrerol]		cells remained unaffected	5.89%	38,145.2	4.09%	31,803.7	relatively stable in diverse aqueous conditions	6.54%	35,412.4	2.81%	33,332.4	4.43%	36,478.1	4.79%	31,542.0		58.3%	4.7 µM		
COc1ccc(-c2coc3cc(O[C@@H]4O[C@H](CO)[C@@H](O)[C@H](O)[C@H]4O)ccc3c2=O)cc1 [ononin]	3.8 µM	cells remained unaffected	4.12%	275,981.3	1.93%	254,398.2	relatively stable in diverse aqueous conditions	4.78%	274,514.7	3.12%	273,422.8	3.65%	265,877.4	1.61%	313,200.4	suppressed in dose-dependent manners	53.4%			
OC[C@H]1O[C@@H](Oc2cc(O)cc(/C=C/c3ccc(O)cc3)c2)[C@H](O)[C@@H](O)[C@@H]1O [polydatin]																			robust inhibition	
Oc1ccc(/C=C/c2cc(O)cc(O)c2)cc1 [resveratrol]																			robust inhibition	significantly suppress tumor growth
avastin: Bevacizumab (avastin), first monoclonal antibody targeting the VEGF protein; positive control																attenuate the NF-κB signal				
